These results are taken from publication PMC8148004, “Distinction between 2′- and 3′-Phosphate Isomers of a Fluorescent NADPH Analogue Led to Strong Inhibition of Cancer Cells Migration” (Antioxidants, 2021).

Assay [1] concerns the target T1, NOX2 C-terminal (gp91phox) (Homo sapiens, UniProt P04839).
T1 construct: gene CYBB; C-terminal (cytosolic part), residues 300–580, His-tagged, E. coli
T1 sequence (P04839 300-570): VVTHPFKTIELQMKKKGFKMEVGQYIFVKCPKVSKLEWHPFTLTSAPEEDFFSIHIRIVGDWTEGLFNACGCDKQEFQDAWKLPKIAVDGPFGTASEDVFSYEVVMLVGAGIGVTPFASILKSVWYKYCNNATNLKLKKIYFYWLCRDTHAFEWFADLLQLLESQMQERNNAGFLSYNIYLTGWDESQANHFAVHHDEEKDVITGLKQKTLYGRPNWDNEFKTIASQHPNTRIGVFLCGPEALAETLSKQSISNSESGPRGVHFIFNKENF
Kind of assay: fluorescence enhancement titration of the ligand with recombinant protein; also decreased NADPH consumption. In kind it is binding.

For another assay, the target named is T2, eNOS (Bos taurus, UniProt P29473).
T2 construct: gene NOS3; full length recombinant bovine eNOS, E. coli BL21 (DE3); with calmodulin
T2 sequence (P29473 2-1205): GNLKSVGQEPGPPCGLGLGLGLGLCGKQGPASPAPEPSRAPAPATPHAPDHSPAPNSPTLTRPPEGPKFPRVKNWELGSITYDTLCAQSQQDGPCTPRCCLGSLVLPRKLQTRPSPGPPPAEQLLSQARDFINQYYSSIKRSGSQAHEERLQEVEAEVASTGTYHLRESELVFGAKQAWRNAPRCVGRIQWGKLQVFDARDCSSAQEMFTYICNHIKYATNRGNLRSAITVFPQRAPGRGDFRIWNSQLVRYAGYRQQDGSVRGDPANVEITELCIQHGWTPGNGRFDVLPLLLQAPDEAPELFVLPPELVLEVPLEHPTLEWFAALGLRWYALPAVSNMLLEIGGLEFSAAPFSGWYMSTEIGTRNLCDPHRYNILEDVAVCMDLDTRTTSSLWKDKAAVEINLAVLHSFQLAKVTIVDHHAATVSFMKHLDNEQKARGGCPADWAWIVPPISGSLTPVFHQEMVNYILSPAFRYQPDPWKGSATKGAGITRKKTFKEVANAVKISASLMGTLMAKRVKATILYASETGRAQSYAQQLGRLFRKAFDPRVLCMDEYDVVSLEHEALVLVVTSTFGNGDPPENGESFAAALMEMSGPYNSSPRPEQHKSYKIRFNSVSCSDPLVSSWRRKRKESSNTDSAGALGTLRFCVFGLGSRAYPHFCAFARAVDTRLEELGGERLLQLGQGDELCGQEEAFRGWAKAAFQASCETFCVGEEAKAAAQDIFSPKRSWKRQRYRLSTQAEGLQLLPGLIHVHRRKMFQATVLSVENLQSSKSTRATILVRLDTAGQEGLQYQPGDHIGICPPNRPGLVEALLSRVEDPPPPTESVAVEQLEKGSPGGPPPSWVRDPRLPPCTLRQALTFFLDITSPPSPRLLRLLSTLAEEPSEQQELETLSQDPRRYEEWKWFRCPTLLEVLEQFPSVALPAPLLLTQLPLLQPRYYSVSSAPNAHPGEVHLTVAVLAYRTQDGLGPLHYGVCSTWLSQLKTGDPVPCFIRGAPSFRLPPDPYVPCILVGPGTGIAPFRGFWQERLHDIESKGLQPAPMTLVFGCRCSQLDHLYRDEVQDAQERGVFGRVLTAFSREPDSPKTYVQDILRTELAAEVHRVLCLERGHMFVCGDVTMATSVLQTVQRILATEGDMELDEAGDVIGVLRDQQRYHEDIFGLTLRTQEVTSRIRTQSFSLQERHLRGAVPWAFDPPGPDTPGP
Description: oxyhemoglobin assay for NO formation. In kind it is biochemical.

The target in assay [2] is T1, NOX2 C-terminal (gp91phox). Kind of assay: fluorescence enhancement titration of the ligand with recombinant protein. It is filed as binding.

Consider `CCN(CCNC(=O)[C@H]1O[C@@H](n2cnc3c(N)ncnc32)[C@H](OP(=O)(O)O)[C@@H]1O)c1ccc(/C=C/c2ccc([N+](=O)[O-])cc2)cc1` [NS1-2], for which, in assay [1], the Kd (as a rule, the concentration at which binding is half-saturated) amounted to 0.67 ± 0.11 µM. Besides, on eNOS, the IC50 (commonly the concentration that inhibits the measured activity by half) was around 30 µM.
As for `CCN(CCNC(=O)[C@H]1O[C@@H](n2cnc3c(N)ncnc32)[C@H](O)[C@@H]1OP(=O)(O)O)c1ccc(/C=C/c2ccc([N+](=O)[O-])cc2)cc1` [NS1-3], the Kd in assay [2] amounted to 1.14 ± 0.09 µM.
